This is an account of results in US4847295A, “Cycloalkyl-substituted 4-aminophenyl halo derivatives and process for their preparation” (Farmitalia Carlo Erba S.r.l., priority 1987, dated 1989).

The target of assay [1] is T1, human placental aromatase (Homo sapiens, UniProt P11511).
T1 construct: isolated from the microsomal fraction of human placental tissue; from tissue; host or cells: human placenta, microsomal fraction
T1 sequence (P11511 1-503): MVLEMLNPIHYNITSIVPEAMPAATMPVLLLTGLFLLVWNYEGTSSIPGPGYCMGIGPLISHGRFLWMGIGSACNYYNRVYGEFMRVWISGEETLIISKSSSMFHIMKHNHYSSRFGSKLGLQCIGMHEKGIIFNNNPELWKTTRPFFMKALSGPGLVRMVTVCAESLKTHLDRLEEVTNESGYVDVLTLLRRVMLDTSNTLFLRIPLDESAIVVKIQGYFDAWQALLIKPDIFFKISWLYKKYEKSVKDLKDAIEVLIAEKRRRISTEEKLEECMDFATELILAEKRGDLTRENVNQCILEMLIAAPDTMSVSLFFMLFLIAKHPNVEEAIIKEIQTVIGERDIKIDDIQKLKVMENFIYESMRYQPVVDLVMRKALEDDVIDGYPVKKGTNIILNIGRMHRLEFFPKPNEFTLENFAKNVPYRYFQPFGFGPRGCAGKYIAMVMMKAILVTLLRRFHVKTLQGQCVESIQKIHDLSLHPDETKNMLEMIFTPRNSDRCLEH
Put plainly: Inhibition of human placental aromatase in vitro (3H2O release from labelled androstenedione, microsomal fraction). The class given is biochemical. To be noted: for Relative potency: versus aminoglutethimide (1 by definition). Here is the method: The assay of the aromatase inhibition in vitro was carried out as follows: the enzyme system was isolated from the microsomal fraction of human placental tissue according to standard procedure.
All incubations were carried out in a shaking water bath at 37° C. in air in 10 mM potassium phosphate buffer, pH 7.5, which contained 100 mM Kcl, 1 mM EDTA and 1 mM dithiothreitol. The experiments were carried out in 1 ml incubation volume containing 50 nM 4-[^3 H]androstenedione, various concentrations of the inhibitors. 100 μm NADPH and 0.05 mg of microsomal proteins. After 15 minutes of incubation the reaction was stopped by the addition of chloroform (5 ml).
After centrifugation at 1500 xg for 5 minutes, aliquots (0.5 ml) were removed from the water phase for determination of ^3 H2 O formed.

In a further assay the test system is aromatase. Particulars: reported in literature; cited from earlier work.

The molecule `Nc1ccc(C(C(=O)NC2CCCCC2)C(F)(F)F)cc1` (racemic) [FCE 25331, N-cyclohexyl-2-(4'-aminophenyl)-3,3,3-trifluoropropanamide] gave an IC50 in assay [1] (human placental microsomes, 50 nM 4-[3H]androstenedione, 100 μm NADPH, pH 7.5, 37° C., 15 min) of 330 nM. In assay [1], this molecule gave a Relative potency of 6.4.

On to `Nc1ccc(C2CCCCC2)cc1` [4-cyclohexylaniline], for which, in the assay with aromatase, the “aromatase-inhibiting action (in words)” value is recorded as “more or less selective aromatase-inhibiting action”. This molecule showed a Relative potency in assay [1] of 1.7.

On to `CCC1(c2ccncc2)CCC(=O)NC1=O` (centres unmarked) [4-pyridyl-3-ethyl-2,6-piperidinedione], for which the “aromatase-inhibiting action (in words)” value with aromatase is given as “more or less selective aromatase-inhibiting action”.

As a reminder, the IC50 is the concentration needed to halve the response being measured. Read a high IC50 as lower potency.
